# Measured values as given in ChEMBL document CHEMBL1129601, “Inhibitors of acyl-CoA: cholesterol O-acyl transferase (ACAT) as hypocholesterolemic agents. CI-1011: an acyl sulfamate with unique cholesterol-lowering activity in animals fed noncholesterol-supplemented diets” (J Med Chem, 1996).
# Several values for one entry are separate records, joined by “and”; a condition that tells them apart may be missing. Equal values may be shown once.
# Key:
# Rattus norvegicus [1] = assay: Effect on the Cholesterol fed rats for HDL-C in rats at the dose of 10 mg/kg by Chroinc screen test; type: functional
# Rattus norvegicus [2] = assay: Effect on the Cholesterol fed rats for total cholesterol level in rats at the dose of 3 mg/kg by Chroinc screen test; type: functional
# Rattus norvegicus [3] = assay: Effect on the Cholesterol fed rats for non-HDL-C in rats at the dose of 3 mg/kg by Chroinc screen test; type: functional; note: unit not given here
# Rattus norvegicus [4] = assay: Effect on the Normal, Chow fed rats for Plasma total triglyceride level in rats at the dose of 30 mg/kg; type: functional, organism-based; parameters: dose 30 mg/kg
# Rattus norvegicus [5] = assay: Evaluated for %change in cholesterol fed rats at the dose of 10 mg/kg determined by Acute screen test; type: functional
# Rattus norvegicus [6] = assay: Evaluated for %change in cholesterol fed rats at the dose of 0.1 mg/kg determined by Acute screen test; type: functional
# Rattus norvegicus [7] = assay: Effect on the Cholesterol fed rats for total cholesterol level in rats at the dose of 0.001 mg/kg by Chroinc screen test; type: functional
# Rattus norvegicus [8] = assay: Effect on the Normal, Chow fed rats for Plasma total triglyceride level in rats at the dose of 3 mg/kg; type: functional, organism-based; parameters: dose 3 mg/kg
# Rattus norvegicus [9] = assay: Effect on the Normal, Chow fed rats for total cholesterol plasma level in rats at the dose of 10 mg/kg; type: functional, organism-based; parameters: dose 10 mg/kg
# Rattus norvegicus [10] = assay: Effect on the Cholesterol fed rats for HDL-C in rats at the dose of 0.01 mg/kg by Chroinc screen test; type: functional
# Rattus norvegicus [11] = assay: Evaluated for %change in cholesterol fed rats for total cholesterol at the dose of 10 mg/kg determined by Chronic screen test; type: functional
# Rattus norvegicus [12] = assay: Effect on the Cholesterol fed rats for non-HDL-C in rats at the dose of 0.01 mg/kg by Chroinc screen test; type: functional; note: unit not given here
# Rattus norvegicus [13] = assay: Evaluated for %change in cholesterol fed rats for non-HDL-C at the dose of 0.03 mg/kg determined by Chronic screen test; type: functional
# Rattus norvegicus [14] = assay: Evaluated for %change in cholesterol fed rats at the dose of 3 mg/kg determined by Acute screen test; type: functional
# Rattus norvegicus [15] = assay: Effect on the plasma Cholesterol level in rats at the dose of 0.1 mg/kg by Acute screen test; type: functional, organism-based; parameters: dose 0.1 mg/kg
# Rattus norvegicus [16] = assay: Evaluated for %change in cholesterol fed rats for non-HDL-C at the dose of 1 mg/kg determined by Chronic screen test; type: functional
# Rattus norvegicus [17] = assay: Evaluated for %change in cholesterol fed rats for HDL-C at the dose of 0.03 mg/kg determined by Chronic screen test; type: functional
# Oryctolagus cuniculus [18] = assay: Effect on Rabbits (Fed a Cholesterol-Free Casein Diet ) for plasma cholesterol at the dose of 3 mg/kg (post treatment); type: functional, organism-based; parameters: dose 3 mg/kg
# Oryctolagus cuniculus [19] = assay: Effect on Rabbits (Fed a Cholesterol-Free Casein Diet ) for plasma cholesterol at the dose of 10 mg/kg (pretreatment); type: functional, organism-based; parameters: dose 10 mg/kg
# Rattus norvegicus [20] = assay: Evaluated for %change in cholesterol fed rats for HDL-C at the dose of 0.01 mg/kg determined by Chronic screen test; type: functional
# Rattus norvegicus [21] = assay: Evaluated for %change in cholesterol fed rats for total cholesterol at the dose of 0.1 mg/kg determined by Chronic screen test; type: functional
# Rattus norvegicus [22] = assay: Effect on the Cholesterol fed rats for non-HDL-C in rats at the dose of 0.1 mg/kg by Chroinc screen test; type: functional
# Oryctolagus cuniculus [23] = assay: Effect on Rabbits (Fed a Cholesterol-Free Casein Diet ) for plasma cholesterol at the dose of 3 mg/kg (pretreatment); type: functional, organism-based; parameters: dose 3 mg/kg
# Rattus norvegicus [24] = assay: Evaluated for %change in cholesterol fed rats for HDL-C at the dose of 0.3 mg/kg determined by Chronic screen test; type: functional
# Rattus norvegicus [25] = assay: Evaluated for %change in cholesterol fed rats for non-HDL-C at the dose of 0.01 mg/kg determined by Chronic screen test; type: functional
# Rattus norvegicus [26] = assay: Effect on the plasma Cholesterol level in rats at the dose of 0.3 mg/kg by Acute screen test; type: functional, organism-based; parameters: dose 0.3 mg/kg
compound,measurement,setting,value
CC(C)c1cc(C(C)C)c(CC(=O)NS(=O)(=O)Oc2c(C(C)C)cccc2C(C)C)c(C(C)C)c1 [AVASIMIBE],HDL-C,Rattus norvegicus [1],36
same,TC,Rattus norvegicus [2],92
same,Non-HDL-C,Rattus norvegicus [3],59
same,Plasma TG,Rattus norvegicus [4],58 mg/dL
same,Change,Rattus norvegicus [5],-72%
same,Change,Rattus norvegicus [6],-32%
same,TC,Rattus norvegicus [7],551
same,Plasma TG,Rattus norvegicus [8],95 mg/dL
same,Plasma TC,Rattus norvegicus [9],44 mg/dL
same,HDL-C,Rattus norvegicus [10],15
same,Change,Rattus norvegicus [11],-69%
same,Non-HDL-C,Rattus norvegicus [12],604
same,Change,Rattus norvegicus [13],-38%
same,Change,Rattus norvegicus [14],-64%
same,Plasma cholesterol,Rattus norvegicus [15],124 mg/dL
same,Change,Rattus norvegicus [16],-70%
same,Change,Rattus norvegicus [17],-12%
same,Plasma cholesterol,Oryctolagus cuniculus [18],171 mg/dL
same,Plasma cholesterol,Oryctolagus cuniculus [19],209 mg/dL
same,Change,Rattus norvegicus [20],-12%
same,Change,Rattus norvegicus [21],-41% and -40%
same,Non-HDL-C,Rattus norvegicus [22],114 and 306
same,Plasma cholesterol,Oryctolagus cuniculus [23],250 mg/dL
same,Change,Rattus norvegicus [24],42%
same,Change,Rattus norvegicus [25],17%
same,Plasma cholesterol,Rattus norvegicus [26],81 mg/dL
